According to patent US20250320227A1, “MACROCYCLIC OREXIN RECEPTOR AGONISTS AND USES THEREOF” (Jazz Pharmaceuticals Ireland Limited, priority 2022, published 2025):
Like-named read-outs stand apart in the source and are kept apart here. Each block holds one molecule with its values, some of them ahead of it.

How the values were obtained:
[1] = target: T1, human recombinant OX2 (hOX2) receptors expressed in CHO cells (Homo sapiens, UniProt O43614); experiment: IP-1 accumulation assay (IP-One HTRF) in hOX2-CHO cells; format: cell-based; details: 60 min incubation at 37° C., mean of at least two independent experiments, read-out: EC50_OX2R Category
T1 construct: host or cells: CHO cells (hOX2-CHO)
T1 sequence (O43614 1-444): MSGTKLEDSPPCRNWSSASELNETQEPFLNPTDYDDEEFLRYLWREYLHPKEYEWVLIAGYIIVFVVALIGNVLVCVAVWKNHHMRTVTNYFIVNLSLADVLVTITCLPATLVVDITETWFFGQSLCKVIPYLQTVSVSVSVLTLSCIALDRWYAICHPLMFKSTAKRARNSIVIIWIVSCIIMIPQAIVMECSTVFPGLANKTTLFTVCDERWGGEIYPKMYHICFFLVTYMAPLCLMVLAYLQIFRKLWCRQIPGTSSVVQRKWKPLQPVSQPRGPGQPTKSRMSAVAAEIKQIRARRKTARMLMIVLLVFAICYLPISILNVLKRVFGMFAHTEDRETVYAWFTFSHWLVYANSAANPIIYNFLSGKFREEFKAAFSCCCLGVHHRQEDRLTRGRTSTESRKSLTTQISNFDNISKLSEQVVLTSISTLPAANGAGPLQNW
How it was run: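 CHO cells in suspension in HBSS/20 mM HEPES pH 7.4 with 50 mM LiCl and 0.1% BSA, given compound (11-point series, 0.5% DMSO) for 60 min at 37 °C. IP-1 read by HTRF ratio, scaled to maximal OX-A response; EC50 from four-parameter fit, mean of ≥2 experiments.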

SMILES: C[C@@H]1CC2(COCC(=O)N2)C2COC3CC=C(CC3)c3cccc(F)c3OCC(=O)N21 (stereo partly drawn)
ring closure, yield of all isomers (from C[C@@H]1CC2(COCC(=O)N2)C(COC2CC=C(c3cccc(F)c3OCC(=O)O)CC2)N1, amide bond, HATU, DIPEA, acetonitrile, 16.9 mM, 3.0 h): 30.1%

SMILES: O=C1COc2ccccc2[C@H]2CC[C@H](CC2)OCC2C(O)CCCN12 (stereo partly drawn)
ring closure, yield of all isomers (from O=C(O)COc1ccccc1[C@H]1CC[C@@H](OCC2NCCCC2O)CC1, amide bond, HATU, acetonitrile, 19.25 mM, 3.0 h): 65%

EC50 [1]: 1000 to 10000 nM
SMILES: C[C@@H]1CC2(COCC(=O)N2)C2Cc3cccc(c3F)-c3ccccc3OCCC(=O)N21 (mixture of isomers) [Example 26, (13′R)-22′-fluoro-13′-methyl-8′-oxa-12′-azaspiro[morpholine-3,15′-tetracyclo[16.3.1.0^2,70.0^12,16]docosane]-1′(22′),2′(7′),3′,5′,18′,20′-hexaene-5,11′-dione]
ring closure, yield of all isomers (from C[C@@H]1CC2(COCC(=O)N2)C(Cc2cccc(-c3ccccc3OCCC(=O)O)c2F)N1, amide bond, HATU, DIPEA, acetonitrile, 0.84 mM, 25.0 °C, 2.5 h): 2.4%

EC50 [1]: 100 to 1000 nM
SMILES: C[C@@H]1CC2(COCC(=O)N2)C2Cc3cccc(c3F)-c3ccccc3OCCCC(=O)N21 (mixture of isomers) [Example 27, (14′R)-23′-fluoro-14′-methyl-8′-oxa-13′-azaspiro[morpholine-3,16′-tetracyclo[17.3.1.0^2,70.0^13,17]tricosane]-1′(23′),2′(7′),3′,5′,19′,21′-hexaene-5, 12′-dione]
ring closure, yield of all isomers (from C[C@@H]1CC2(COCC(=O)N2)C(Cc2cccc(-c3ccccc3OCCCC(=O)O)c2F)N1, amide bond, HATU, MeCN, 2.3 mM, 25.0 °C, 2.5 h): 84.9%

SMILES: CC1CC(=O)N2CC[C@@]3(COCC(=O)N3)[C@@H]2CO[C@H]2CC[C@H](CC2)c2ccccc2O1 (relative stereo)
ring closure, yield of all isomers (from CC(CC(=O)O)Oc1ccccc1[C@H]1CC[C@@H](OC[C@@H]2NCC[C@@]23COCC(=O)N3)CC1, amide bond, HATU/DIPEA, acetonitrile, 3.7 mM, 3.0 h): 45.6%

SMILES: O=C1COC[C@@]2(CCCN3C(=O)OCCOc4cccc(c4)[C@H]4CC[C@H](CC4)OC[C@H]32)N1 (relative stereo)
ring closure, yield of all isomers (from O=C1COC[C@@]2(CCCN(C(=O)OCCCl)[C@H]2CO[C@H]2CC[C@@H](c3cccc(O)c3)CC2)N1, ether bond, Cs2CO3, DMF, 4.02 mM, 60.0 °C, 15.0 h): 11.1%

SMILES: O=C1COC[C@@]2(CCCN3C(=O)OCCOc4ccccc4-c4cccc(c4F)C[C@H]32)N1 (relative stereo)
ring closure, yield of all isomers (from O=C1COC[C@@]2(CCCN[C@H]2Cc2cccc(-c3ccccc3OCCO)c2F)N1, other bond, triphosgene, MeCN, 15.7 mM, 80.0 °C, 20.5 h): 3.6%

SMILES: O=C1COC[C@@]2(CCN3C(=O)CC(C(F)(F)F)Oc4ccccc4[C@H]4CC[C@H](CC4)OC[C@H]32)N1 (relative stereo)
ring closure, yield of all isomers (from O=C(O)CC(Oc1ccccc1[C@H]1CC[C@@H](OC[C@@H]2NCC[C@@]23COCC(=O)N3)CC1)C(F)(F)F, amide bond, HATU/DIPEA, acetonitrile, 3.68 mM, 3.0 h): 54.7%

SMILES: O=C1COC[C@@]2(CCN3C(=O)CCCOc4ccccc4[C@H]4CC[C@H](CC4)OC[C@H]32)N1 (relative stereo)
ring closure, yield of all isomers (from O=C(O)CCCOc1ccccc1[C@H]1CC[C@@H](OC[C@@H]2NCC[C@@]23COCC(=O)N3)CC1, amide bond, HATU/DIPEA, acetonitrile, 2.01 mM, 3.0 h): 54.4%

SMILES: O=C1COC[C@@]2(CCN3C(=O)CCOc4c(F)cc(F)cc4C4=CCC(CC4)OC[C@H]32)N1 (relative stereo)
ring closure, yield of all isomers (from O=C(O)CCOc1c(F)cc(F)cc1C1=CCC(OC[C@@H]2NCC[C@@]23COCC(=O)N3)CC1, amide bond, HATU/DIPEA, acetonitrile, 3.43 mM, 3.0 h): 60.1%

SMILES: O=C1COC[C@@]2(CCN3C(=O)CCOc4cccc(F)c4[C@H]4CC[C@H](CC4)OC[C@H]32)N1 (relative stereo)
ring closure, yield of all isomers (from O=C(O)CCOc1cccc(F)c1[C@H]1CC[C@@H](OC[C@@H]2NCC[C@@]23COCC(=O)N3)CC1, amide bond, HATU/DIPEA, acetonitrile, 5.42 mM, 25.0 °C, 4.0 h): 46.4%

SMILES: O=C1COC[C@@]2(CCN3C(=O)CCOc4ccccc4[C@H]4CC[C@H](CC4)OC[C@H]32)N1 (relative stereo)
ring closure, yield of all isomers (from O=C(O)CCOc1ccccc1[C@H]1CC[C@@H](OC[C@@H]2NCC[C@@]23COCC(=O)N3)CC1, amide bond, HATU/DIPEA, acetonitrile, 1.97 mM, 3.0 h): 92.6%

SMILES: O=C1N[C@]2(CCN3C(=O)CCOc4ccccc4[C@H]4CC[C@H](CC4)OC[C@H]32)COC1F (relative stereo)
ring closure, yield of all isomers (from O=C(O)CCOc1ccccc1[C@H]1CC[C@@H](OC[C@@H]2NCC[C@@]23COC(F)C(=O)N3)CC1, amide bond, HATU/DIPEA, acetonitrile, 3.66 mM, 3.0 h): 46.1%

EC50 [1]: 100 to 1000 nM
SMILES: CC1COc2ccccc2[C@H]2CC[C@H](CC2)OC[C@@H]2N(CC[C@@]23COCC(=O)N3)C1=O (relative stereo) [Example 5c, (1′s,3R,10′R,16′S,19′s)-10′-methyl-8′,18′-dioxa-12′-azaspiro[morpholine-3,15′-tetracyclo[17.2.2.0^2,70.0^12,16]tricosane]-2′(7′),3′,5′-triene-5,11′-dione and (1′s,3S, 10′S,16′R,19′s)-10′-methyl-8′,18′-dioxa-12′-azaspiro[morpholine-3,15′-tetracyclo[17.2.2.0^2,70.0^12,16]tricosane]-2′(7′), 3′,5′-triene-5,11′-dione]
ring closure, yield of all isomers (from CC(COc1ccccc1[C@H]1CC[C@@H](OC[C@@H]2NCC[C@@]23COCC(=O)N3)CC1)C(=O)O, amide bond, HATU/DIPEA, acetonitrile, 3.68 mM, 3.0 h): 9.4%

EC50 [1]: < 100 nM
SMILES: C[C@@H]1C[C@@]2(COCC(=O)N2)[C@@H]2CO[C@H]3CC[C@H](CC3)c3c(F)cccc3OCC(=O)N12 (single isomer, unassigned) [Example 17a]
ring closure, yield of all isomers (from C[C@@H]1CC2(COCC(=O)N2)C(CO[C@H]2CC[C@@H](c3c(F)cccc3OCC(=O)O)CC2)N1, amide bond, HATU, DIPEA, acetonitrile, 19.2 mM, 3.0 h): 9%

EC50 [1]: < 100 nM
SMILES: C[C@@H]1C[C@@]2(COCC(=O)N2)[C@@H]2CO[C@H]3CC[C@H](CC3)c3cccc(F)c3OCCC(=O)N12 (single isomer, unassigned) [Example 24a]
ring closure, yield of all isomers (from C[C@@H]1CC2(COCC(=O)N2)C(CO[C@H]2CC[C@@H](c3cccc(F)c3OCCC(=O)O)CC2)N1, amide bond, HATU, DIPEA, acetonitrile, 12.2 mM, 3.0 h): 37.1%

EC50 [1]: < 100 nM
SMILES: Cc1ccnc2c1[C@H]1CC[C@H](CC1)OCC1N(CCCC13COCC(=O)N3)C(=O)CO2 (stereo partly drawn) [Example 77, (1′s,19′s)-3′-methyl-8′,18′-dioxa-6′,11′-diazaspiro[morpholine-3,15′-tetracyclo[17.2.2.0^2,70.0^11,16]tricosane]-2′,4′,6′-triene-5,10′-dione]
ring closure, yield of all isomers (from Cc1ccnc(O)c1[C@H]1CC[C@@H](OCC2N(C(=O)CCl)CCCC23COCC(=O)N3)CC1, ether bond, K2CO3, acetonitrile, 2.06 mM, 90.0 °C, 12.0 h): 9.4%

EC50 [1]: > 10000 nM
SMILES: Cc1ccnc2c1[C@H]1CC[C@H](CC1)OC[C@H]1N(CCC[C@]13COCC(=O)N3)C(=O)CO2 [Example 77b, (1′s,3R,16′S,19′s)-3′-methyl-8′,18′-dioxa-6′, 11′-diazaspiro[morpholine-3,15′-tetracyclo[17.2.2.0^2,70.0^11,16]tricosane]-2′,4′,6′-triene-5,10′-dione]
